Laboratory results: patent publication US20220241228A1, “Treatment of cholangiopathies” (CymaBay Therapeutics, Inc., priority 2021, published 2022)
Read-outs that look alike come from different tables or passages of the source.

Columns and labels:
PBC patients [1] = conditions: 12-month trial, cited from earlier work
PPARα = biological target: T1, PPARα (Homo sapiens, UniProt Q07869); experiment: Specificity of seladelpar compared with PPARα; type: biochemical; conditions: PPARδ versus PPARα
T1 sequence (Q07869 1-468): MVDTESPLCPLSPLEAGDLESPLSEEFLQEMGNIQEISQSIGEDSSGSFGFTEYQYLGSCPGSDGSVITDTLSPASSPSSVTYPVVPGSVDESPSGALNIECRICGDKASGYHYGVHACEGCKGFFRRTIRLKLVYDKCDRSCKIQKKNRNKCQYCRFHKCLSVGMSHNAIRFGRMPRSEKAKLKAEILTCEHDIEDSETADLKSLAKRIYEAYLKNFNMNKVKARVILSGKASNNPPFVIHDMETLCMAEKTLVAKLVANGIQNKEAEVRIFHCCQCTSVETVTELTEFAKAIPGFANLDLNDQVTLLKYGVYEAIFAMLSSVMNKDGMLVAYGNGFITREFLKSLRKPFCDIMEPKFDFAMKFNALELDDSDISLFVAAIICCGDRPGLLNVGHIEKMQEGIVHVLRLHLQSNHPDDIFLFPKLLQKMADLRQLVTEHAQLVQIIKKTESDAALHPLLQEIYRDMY
Source text: It is specific (>600-fold and >2500-fold compared with PPARα and PPARγ receptors). PPARδ activation stimulates fatty acid oxidation and utilization, improves plasma lipid and lipoprotein metabolism, glucose utilization, and mitochondrial respiration, and preserves stem cell homeostasis.

[2] = tested on: Subjects with primary biliary cholangitis; experiment: Pooled open-label Phase 2 and placebo-controlled Phase 3 studies of seladelpar in PBC subjects intolerant of, or with inadequate response to, obeticholic acid and/or a fibrate; type: in vivo, human; conditions: for Composite endpoint met / ALP ≤ ULN / Mean change in ALT / Mean change in TBIL / Mean change in ALP: three months; for Composite endpoint met: ALP <1.67×ULN, >15% decrease in ALP, and TBIL ULN; for Mean change in ALP: from baseline
Source text: The trial subjects were adult, male or female, with a diagnosis of PBC by at least two of the following three criteria: (a) a history of ALP above the upper limit of normal (ULN) for at least six months, (b) positive anti-mitochondrial antibody titers > 1/40 on immunofluorescence or M2 positive by enzyme linked immunosorbent assay or positive PBC-specific antinuclear antibodies, and (c) documented liver biopsy result consistent with PBC, on a stable and recommended dose of UDCA for the past twelve months or UDCA intolerant, and ALP ≥1.67×ULN. Exclusion criteria included AST or ALT ≥3×ULN, TBIL ≥2×ULN, autoimmune hepatitis or a history of chronic viral hepatitis, PSC, the current use of fibrates or simvastatin, the use of colchicine, methotrexate, azathioprine, or systemic steroids in the previous two months, the use of an experimental treatment for PBC, and the use of an experimental or unapproved immunosuppressant. […] Efficacy was assessed on subjects treated for three months. The composite endpoint was the responder rate for subjects achieving ALP <1.67×ULN, >15% decrease in ALP, and TBIL ULN. Additional endpoints were ALP ULN, ALP change from baseline, and other markers of liver function. Safety was assessed over one year. […] Fifty-one subjects were treated for 3 months; and 37 were assessed; with results in the table below: A safety analysis was performed on all 71 subjects.

subjects with PSC = experiment: Randomized placebo-controlled 24-week trial in primary sclerosing cholangitis (Example 2); type: in vivo, human; conditions: 5, 10, or 20 mg/day orally once/day for 24 weeks
Experimental: Trial subjects are adult, male or female, with a diagnosis of PSC by at least two of the following three criteria: (a) historical evidence of an elevated AP >ULN from any prior laboratory result, (b) liver biopsy consistent with PSC, and (c) abnormal cholangiography consistent with PSC as measured by MRCP, ERCP, or percutaneous transhepatic cholangiography; on a stable and recommended dose of UDCA ≤20 mg/Kg/day for the past six months or at least twelve weeks off UDCA treatment; and intolerant of, or having an inadequate response to, obeticholic acid and/or a fibrate. Other criteria include ALP ≥1.5×ULN, TBIL ≤2×ULN, ALT and AST both ≤5×ULN, eGFR >60 mL/min/1.73 m^2, platelets ≥140×10^3/μL, INR ≤1.3 (in the absence of warfarin or other anticoagulant therapy), and albumin ≥3.5 g/dL. Exclusion criteria include clinically significant acute or chronic liver disease of an etiology other than PSC, a diagnosis of overlapping autoimmune hepatitis (AIH) and PSC, secondary or IgG4 related sclerosing cholangitis, small duct PSC, presence of a cholangiocarcinoma on cholangiography or MRI, bile duct stenting, history, evidence, or high suspicion of cholangiocarcinoma or other hepatobiliary malignancy, presumptive or diagnosed acute cholangitis within twelve weeks, and evidence of compensated or decompensated cirrhosis. […]

[3] = tested on: patients with primary biliary cholangitis; conditions: over a 52-week period; cited from earlier work
PBC patients [4] = conditions: cited from earlier work
[5] = PBC subjects intolerant of, or inadequate response to, obeticholic acid and/or a fibrate

## CC[C@H]1[C@@H](O)[C@@H]2[C@H](CC[C@]3(C)[C@@H]([C@H](C)CCC(=O)O)CC[C@@H]23)[C@@]2(C)CC[C@@H](O)C[C@@H]12 [OCA, 6α-ethylchenodeoxycholic acid]
PBC patients [1]; OCALIVA 10 mg arm
  patients with severe pruritus: 23%
PBC patients [1]; OCALIVA titration arm
  patients with severe pruritus: 19%

## CCO[C@H](COc1ccc(C(F)(F)F)cc1)CSc1ccc(OCC(=O)O)c(C)c1 [Seladelpar, [4-({(2R)-2-ethoxy-3-[4-(trifluoromethyl)phenoxy]propyl}sulfanyl)-2-methylphenoxy]acetic acid]
PPARα
  specificity compared with PPARα: > 600 fold
[2]; 5 mg/day orally once/day
  Pruritus adverse events experienced: 15%
  ALP ≤ ULN: 0
  Mean change in ALT: −13%
  Mean change in TBIL: −3%
  Mean change in ALP: −31%
[2]; 5 mg/day orally once/day as L-lysine dihydrate salt
  Composite endpoint met: 40%
[2]; 5 mg/day, safety analysis on all 71 subjects, all unrelated to seladelpar
  subjects who experienced a serious adverse event: three
[2]; 5 mg/day, safety analysis on all 71 subjects, one ALT/AST elevation, one gastroesophageal reflux disease
  subjects who discontinued treatment due to adverse events: two
[2]; 10 mg/day orally once/day
  Pruritus adverse events experienced: 7%
  ALP ≤ ULN: 21%
  Mean change in ALT: −21%
  Mean change in TBIL: −9%
  Mean change in ALP: −45%
[2]; 10 mg/day orally once/day as L-lysine dihydrate salt
  Composite endpoint met: 79%
[2]; [5]
  biochemical markers of cholestasis: meaningful improvement
  safety and tolerability: safe, well tolerated
Subjects with PSC
  ALP: dose-related reductions
  PSC-related symptoms: improvements
[3]
  ALP and GGT: statistically significant decreases
  ALT: statistically significant decrease
  total bilirubin levels: stable

## C[C@H](CCC(=O)O)[C@H]1CC[C@H]2[C@@H]3[C@@H](O)C[C@@H]4C[C@H](O)CC[C@]4(C)[C@H]3CC[C@]12C [UDCA, ursodeoxycholic acid]
PBC patients [4]
  patients reported to be intolerant to treatment: about 5%
